# Data taken from patent publication US20100035753A1, “Fungicidal Mixtures Comprising Substituted 1-methylpyrazol-4-ylcarboxanilides” (BASF SE, priority 2007, published 2010).
# Like-named read-outs stand apart in the source and are kept apart here.
# What was measured:
# Puccinia recondita [1] = assay: Use Example 5: curative control of brown rust on wheat; assay type: in vivo
# Experimental: (§1) The active compounds, separately or jointly, were prepared as a stock solution comprising 25 mg of active compound which was made up to 10 ml using a mixture of acetone and/or DMSO and the emulsifier Uniperol® EL (wetting agent having an emulsifying and dispersing action based on ethoxylated alkylphenols) in a ratio by volume of solvent/emulsifier of 99:1. The mixture was then made up to 100 ml with water. This stock solution was diluted with the solvent/emulsifier/water mixture described to give the concentration of active compound stated below.
# (§2) The visually determined percentages of infected leaf areas were converted into efficacies in % of the untreated control:
# (§3) The efficacy (E) is calculated as follows using Abbot's formula: […]
# (§4) α corresponds to the fungicidal infection of the treated plants in % and
# (§5) β corresponds to the fungicidal infection of the untreated (control) plants in %
# (§6) An efficacy of 0 means that the infection level of the treated plants corresponds to that of the untreated control plants; an efficacy of 100 means that the treated plants were not infected.
# (§7) The expected efficacies of active compound combinations were determined using Colby's formula (Colby, S. R. “Calculating synergistic and antagonistic responses of herbicide combinations”, Weeds, 15, pp. 20-22, 1967) and compared with the observed efficacies.
# (§8) Colby's formula: E=x+y−x·y/100 • E expected efficacy, expressed in % of the untreated control, when using the mixture of the active compounds A and B at the concentrations a and b • x efficacy, expressed in % of the untreated control, when using the active compound A at the concentration a • y efficacy, expressed in % of the untreated control, when using the active compound B at the concentration b
# The first two developed leaves of pot-grown wheat seedling were dusted with spores of Puccinia recondita. To ensure the success the artificial inoculation, the plants were transferred to a humid chamber without light and a relative humidity of 95 to 99% and 20 to 22° C. for 24 h. The next day the plants were sprayed to run-off with an aqueous suspension, containing the concentration of active ingredient or their mixture as described below. The plants were allowed to air-dry. Then the trial plants were cultivated for 8 days in a greenhouse chamber at 22-26° C. and a relative humidity between 65 and 70%. The extent of fungal attack on the leaves was visually assessed as % diseased leaf area.
# Phakopsora pachyrhizi = assay: Use Example 8: curative control of soy bean rust on soy beans; assay type: in vivo; settings: 0.25 ppm
# Experimental: as §1, §2, §3, §4
# (§9) β corresponds to the fungicidal infection of the untreated (control) plants in % […]
# (§10) The expected efficacies of active compound combinations were determined using Colby's formula (Colby, S. R. “Calculating synergistic and antagonistic responses of herbicide combinations”, Weeds, 15, pp. 20-22, 1967) and compared with the observed efficacies. […]
# Leaves of pot-grown soy bean seedlings were inoculated with spores of Phakopsora pachyrhizi. […] The extent of fungal attack on the leaves was visually assessed as % diseased leaf area.
# Phytophthora infestans [2] = assay type: in vivo
# Botrytis cinerea [3] = assay: Use Example 2: preventative control of grey mold on leaves of green pepper; assay type: in vivo; settings: 4 ppm
# Experimental: as §1, §2, §3, §4, §9, §10
# Young seedlings of green pepper were grown in pots to the 2 to 3 leaf stage. […] After 5 days at 22 to 24° C. and a relative humidity close to 100% the extent of fungal attack on the leaves was visually assessed as % diseased leaf area.
# Septoria tritici [4] = tested on: Septoria tritici
# Puccinia recondita [5] = assay: Use Example 6: preventative control of brown rust on wheat; assay type: in vivo; settings: 0.25 ppm
# Experimental: as §1, §2, §3
# α corresponds to the fungicidal infection of the treated plants in % and […]
# as §10
# The first two developed leaves of pot-grown wheat seedling were sprayed to run-off with an aqueous suspension, containing the concentration of active ingredient or their as described below. […] The extent of fungal attack on the leaves was visually assessed as % diseased leaf area.
# Alternaria solani = assay: Use Example 1: preventative fungicidal control of early blight on tomatoes; assay type: in vivo; settings: 0.25 ppm
# Experimental: as §1, §2, §3, §4, §5, §6, §7, §8
# Young seedlings of tomato plants were grown in pots. […] After 5 days at 20 to 22° C. and a relative humidity close to 100%, the extent of fungal attack on the leaves was visually assessed as % diseased leaf area.
# Phytophthora infestans [6] = assay type: cell-based
# Pyricularia oryzae [7] = assay type: cell-based; settings: 0.25 ppm
# Botrytis cinerea [8] = assay: Use Example 9.2: activity against grey mold in the microtiterplate test; assay type: cell-based
# Phytophthora infestans [9] = assay type: cell-based; remark: listed apart in the source
# [10] = tested on: Blumeria graminis f. sp. tritici; assay: Use Example 4: control of powdery mildew on wheat; assay type: in vivo; settings: 0.25 ppm
# Experimental: as §1, §2, §3, §10
# The first fully developed leaves of pot grown wheat were sprayed to run-off with an aqueous suspension, containing the concentration of active ingredient or their mixture mentioned in the table below. […] After cultivation in the greenhouse for 7 days at 22-26° C. and a relative humidity between 60 to 90% the extent of fungal attack on the leaves was visually assessed as % diseased leaf area.
# Pyrenophora teres = assay: Use Example 7: control of net blotch on barley; assay type: in vivo, Pyrenophora (syn. Drechslera) teres
# Experimental: as §1, §2, §3, §10
# The first fully developed leaves of pot grown barley plants were sprayed to run-off with an aqueous suspension, containing the concentration of active ingredient or their mentioned in the table below. […] After 6 days of cultivation at 20-24° C. and a relative humidity close to 70%, the extent of fungal attack on the leaves was visually assessed as % leaf area.
# Pyricularia oryzae [11] = assay type: cell-based
# Septoria tritici [12] = assay: Use Example 13: control of Septoria tritici; assay type: cell-based
# [13] = tested on: Ramularia collo-cygni/Physiological leaf spots; assay: Control of phytopathogenic fungi in barley (statement in the description); assay type: in vivo; settings: solo or in combination with an active compound II
smiles,measurement,setting,value
"Cc1nn(C)c(F)c1C(=O)Nc1ccccc1C(C)CC(C)C (centres unmarked) [N-(2-(1,3-dimethylbutyl)-phenyl)-1,3-dimethyl-5-fluoro-1H-pyrazole-4-carboxylic acid amide]",Observed efficacy (% of untreated control),Puccinia recondita [1]; 0.25 ppm,0%
same,Observed efficacy (% of untreated control),Puccinia recondita [1]; 1 ppm,0%
same,Observed efficacy (% of untreated control),Phakopsora pachyrhizi,60%
same,Observed activity (% infection),Phytophthora infestans [2]; 1 ppm,0%
same,Observed activity (% infection),Phytophthora infestans [2]; 4 ppm,0%
same,Observed efficacy (% of untreated control),Botrytis cinerea [3],0%
same,Observed activity,Septoria tritici [4]; 0.004 ppm,1%
Clc1ccc(C2(Cn3cncn3)OCCO2)c(Cl)c1 [azaconazole],Observed efficacy (% of untreated control),Puccinia recondita [5],0%
same,Observed efficacy (% of untreated control),Puccinia recondita [1]; 0.25 ppm,0%
same,Observed fungicidal efficacy (% of untreated control),Alternaria solani,0%
same,Observed activity (% infection),Phytophthora infestans [2]; 4 ppm,0%
same,Observed efficacy (% of untreated control),Botrytis cinerea [3],0%
same,Observed activity,Septoria tritici [4]; 0.016 ppm,19%
"COC(=O)[C@@H](C)N(C(=O)Cc1ccccc1)c1c(C)cccc1C [Benalaxyl-M, benalaxyl-M, reference compound]",Observed activity (% infection),Phytophthora infestans [6]; 16 ppm,18%
same,Observed activity (%),Pyricularia oryzae [7],0%
CC1CCCCN1CCCOC(=O)c1ccc(Cl)c(Cl)c1 (centres unmarked) [piperalin],Observed activity (%),Botrytis cinerea [8]; 0.016 ppm,12%
C[N+]1(C)CCCCC1 [Mepiquat-chloride],Observed activity (% infection),Phytophthora infestans [9]; 63 ppm,14%
"CCN(C)C=Nc1cc(C)c(Oc2ccc(F)c(C(F)(F)F)c2)cc1C [N′-(4-(4-fluoro-3-trifluoromethyl-phenoxy)-2,5-dimethyl-phenyl)-N-ethyl-N-methyl formamidine]",Observed efficacy (% of untreated control),[10],38%
same,Observed efficacy (% of untreated control),Pyrenophora teres; 1 ppm,13%
same,Observed efficacy (% of untreated control),Puccinia recondita [1]; 0.25 ppm,67%
same,Observed fungicidal efficacy (% of untreated control),Alternaria solani,0%
same,Observed activity (% infection),Phytophthora infestans [2]; 16 ppm,0%
CCC(=O)C1=C([O-])CC(C(=O)[O-])CC1=O.[Ca+2] (centres unmarked) [Prohexadione-Ca],Observed activity (% infection),Phytophthora infestans [9]; 16 ppm,17%
CCC(=O)C1=C([O-])CC(C(=O)[O-])CC1=O.[Ca+2] (centres unmarked) [prohexadione-Ca],Observed activity (%),Pyricularia oryzae [11]; 0.25 ppm,0%
same,Observed fungicidal efficacy (%),Septoria tritici [12]; 0.25 ppm,0%
O=C(NCCc1ncc(C(F)(F)F)cc1Cl)c1ccccc1C(F)(F)F [fluopyram],Observed activity (%),Botrytis cinerea [8]; 0.004 ppm,4%
CCOC(=O)C1CC(=O)C(=C(O)C2CC2)C(=O)C1 (centres unmarked) [trinexapac-ethyl],Observed activity (%),Pyricularia oryzae [11]; 4 ppm,2%
same,Observed fungicidal efficacy (%),Septoria tritici [12]; 4 ppm,2%
Clc1cccc(C(Cl)(Cl)Cl)n1 [nitrapyrin],Observed activity (%),Botrytis cinerea [8]; 0.016 ppm,10%
CCOC(=O)C1CC(=O)C(=C(O)C2CC2)C(=O)C1 (centres unmarked) [Trinexapac-ethyl],Observed activity (% infection),Phytophthora infestans [9]; 63 ppm,39%
"CCN(C)C=Nc1cc(C)c(Oc2ccc(Cl)c(C(F)(F)F)c2)cc1C [N′-(4-(4-chloro-3-trifluoromethyl-phenoxy)-2,5-dimethyl-phenyl)-N-ethyl-N-methyl formamidine]",Observed activity (% infection),Phytophthora infestans [6]; 4 ppm,33%
same,Observed efficacy (% of untreated control),Pyrenophora teres; 0.25 ppm,25%
same,Observed fungicidal efficacy (% of untreated control),Alternaria solani,22%
same,Observed activity (% infection),Phytophthora infestans [2]; 1 ppm,0%
"Cn1cc(C(=O)Nc2ccc(F)cc2-c2ccc(Cl)c(Cl)c2)c(C(F)F)n1 [N-(3′,4′-dichloro-5-fluorobiphenyl-2-yl)-1-methyl-3-difluoromethyl-1H-pyrazole-4-carboxamide]",activity against Ramularia collo-cygni/Physiological leaf spots,[13],excellent activity
